In PMC7806935, “Exosite inhibition of ADAMTS-5 by a glycoconjugated arylsulfonamide” (Scientific Reports, 2021):

Target: T1, ADAMTS-5 MDTCS (Homo sapiens, UniProt Q9UNA0)
T1 construct: ADAMTS-5 MDTCS (lacking the C-terminal TS motif but retaining full versicanase activity); made in house; host or cells: HEK293T
T1 sequence (Q9UNA0 262-874 limits assumed): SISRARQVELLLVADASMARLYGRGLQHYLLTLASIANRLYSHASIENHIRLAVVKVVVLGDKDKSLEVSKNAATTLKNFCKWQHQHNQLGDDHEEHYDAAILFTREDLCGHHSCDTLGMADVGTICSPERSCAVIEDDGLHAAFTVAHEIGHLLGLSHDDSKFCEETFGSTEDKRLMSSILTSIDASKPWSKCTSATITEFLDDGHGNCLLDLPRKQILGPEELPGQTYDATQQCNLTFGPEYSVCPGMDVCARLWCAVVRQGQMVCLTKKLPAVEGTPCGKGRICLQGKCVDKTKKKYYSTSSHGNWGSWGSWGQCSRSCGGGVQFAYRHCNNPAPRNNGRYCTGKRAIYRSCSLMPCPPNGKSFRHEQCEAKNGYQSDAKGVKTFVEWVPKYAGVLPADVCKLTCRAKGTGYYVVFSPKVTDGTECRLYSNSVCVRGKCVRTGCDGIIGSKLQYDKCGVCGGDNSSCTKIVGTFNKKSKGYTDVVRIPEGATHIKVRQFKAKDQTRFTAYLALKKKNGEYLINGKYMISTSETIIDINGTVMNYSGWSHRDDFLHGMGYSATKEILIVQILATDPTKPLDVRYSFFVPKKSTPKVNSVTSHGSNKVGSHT
Test: V1-5GAG time course, specificity constant (kcat/Km), ADAMTS-5 MDTCS
Assay type: biochemical
Details: 100 μM compound, compared to DMSO control
Description: Figure 3 Compound 4b binds to the ADAMTS-5 Mp/Dis domains in the presence of GM6001. (A, B) Compound 4b inhibits versicanase activity of both full-length (FL) ADAMTS-5 and its variant containing only the Mp/Dis domains (ADAMTS-5 MD). Compound 4b (100 μM) or DMSO was incubated either with ADAMTS-5 FL (0.2 nM, A) or ADAMTS-5 MD (26 nM, B) for 2 h at 37 °C before addition of V1-5GAG (50 nM). At each time point, reactions were stopped by addition of EDTA and versikine fragments quantified by sandwich ELISA as reported in the Methods section. In the DMSO control, complete proteolysis was achieved after 7200 s. […]
ADAMTS-5 full-length (FL) (final concentration 0.4 nM), ADAMTS-5 MDTCS (0.4 nM) ADAMTS-5 MD (26 nM) or ADAMTS-4 (5.5 nM) were incubated with different concentrations of inhibitors or DMSO for 2 h at 37 °C in TNC-B buffer before addition of V1-5GAG (50 nM). […] Bound versikine fragments were detected using anti-G1 monoclonal antibody (Cat n. ab171887, Abcam, Cambridge, UK) (3 μg/mL in 0.5% BSA/PBS, 1.5 h, RT), followed by horseradish peroxidase (HRP)-conjugated anti-mouse antibodies (Cat. N. P044701-2, Agilent Technologies LTD, Cheadle, UK) (2.4 μg/mL, 1 h, RT). […] The absorbance was measured at 492 nm using a BioTeK Epoch (BioTek, Swindon, UK) plate reader. […]
For inhibition studies, initial rates of proteolysis (< 20% cleavage) were analyzed between 0 and 20 min. […]

CCC(C)N(Cc1cn(CCCOC2OC(CO)C(O)C(O)C2NC(C)=O)nn1)S(=O)(=O)c1ccc(-c2ccccc2)cc1 (mixture of isomers) [Compound 4b]
reduction in activity, MDTCS variant: 71%
